# Entries after “also recorded” stand apart in the source; their conditions may differ. Marks after values point to notes of the source that are not given here.
# What was measured:
# mice [1] = test: Forced-swim test; type: in vivo, CD-1 mice; conditions: vs saline
# mice [2] = test: Learned helplessness test; type: in vivo, CD-1 mice; conditions: vs saline; for Learned helplessness: escape failures in the last 10 trials: p<0.001
# [3] = Rat pharmacokinetic study of; type: in vivo, Sprague-Dawley rats; conditions: for AUC/dose: plasma
# mice [4] = test: Adverse effects screening; type: in vivo, CD-1 mice
# [5] = Mouse pharmacokinetic studies of; type: in vivo, CD-1 mice
# [6] = Canine pharmacokinetic study of; conditions: for AUC0→∞ / t1/2 / Cmax: dog plasma
# Screening of = type: in vivo, CD-1 mice; conditions: male mice, three timepoints; for Relative BA (plasma AUClast p.o. / i.p.) / AUClast of (2R,6R)-HNK in plasma / AUC (systemic exposure to (2R,6R)-HNK): 50 mg/kg; for Cmax of (2R,6R)-HNK in plasma: 50 mg/kg of the compound
# mice [7] = test: Open-field test; type: in vivo, CD-1 mice; conditions: vs saline; for Open-field total distance travelled: 15, 50, 150, 450 mg/kg p.o., 60 min after administration
# [8] = rats; ref Moaddel et al., 2015; cited from earlier work
# [9] = 15 mg/kg i.p., 24-hour re-test, p<0.01
# [10] = 15 mg/kg i.p., one hour after administration, p<0.05
# [11] = brain, female mice, i.v., 50 mg/kg
# [12] = brain, female mice, p.o., 50 mg/kg
# [13] = brain, male mice, i.p., 50 mg/kg
# [14] = brain, male mice, i.v., 50 mg/kg
# [15] = male mice, p.o., 50 mg/kg, cohort p.o. vs i.p.
# [16] = male mice, p.o., 10 min, cohort p.o. vs i.v.
# [17] = plasma, female mice, i.v., 50 mg/kg
# [18] = plasma, female mice, p.o., 50 mg/kg
compound,measurement,setting,value
"CNC1(c2ccccc2Cl)CCCCC1=O (racemic) [ketamine, (R,S)-ketamine, reference compound]",Forced-swim test immobility time,mice [1]; [9],reduced immobility time
same,Forced-swim test immobility time,mice [1]; [10],reduced immobility time
"N[C@@]1(c2ccccc2Cl)CCC[C@@H](O)C1=O [(2R,6R)-HNK, (2R,6R)-hydroxynorketamine]",Learned helplessness: escape failures in the last 10 trials,"mice [2]; 50 mg/kg i.p., 24 h after treatment",reduced
same,Learned helplessness: total number of escape failures,"mice [2]; 50 mg/kg i.p., tested 24 h after treatment, p<0.01",reduced the total number of escape failures
same,Learned helplessness: escape failures in the last 10 trials,"mice [2]; 50 and 150 mg/kg p.o., 24 h after treatment",robust reduction in the number of escape failures; also recorded: effective at reversing helplessness
same,Learned helplessness: total number of escape failures,"mice [2]; 50 and 150 mg/kg p.o., 24 h after treatment, p<0.05",robust reduction in the number of escape failures; also recorded: effective at reversing helplessness
same,Cl,"[3]; male rats, i.v.",27 mL/min/kg
same,Vss,"[3]; male rats, i.v.",7.5 L/kg
same,AUC/dose,"[3]; male rats, i.v.",0.627 µg·kg·h/mL/mg
same,AUC/dose,"[3]; male rats, p.o.",0.265 µg·kg·h/mL/mg
same,AUC0→∞,"[3]; rat brain, i.v., 10 mg/kg",6090 ng·h/mL
same,t1/2,"[3]; rat brain, i.v., 10 mg/kg",528 min
same,Cmax,"[3]; rat brain, i.v., 10 mg/kg, measured five minutes after dosing, not actual peak",9.13^a μg/mL
same,AUC0→∞,"[3]; rat brain, p.o., 10 mg/kg",2580 ng·h/mL
same,Cmax,"[3]; rat brain, p.o., 10 mg/kg",1.52 µg/mL
same,t1/2,"[3]; rat brain, p.o., 10 mg/kg",342 min
same,AUC0→∞,"[3]; rat plasma, i.v., 10 mg/kg",6270 ng·h/mL
same,t1/2,"[3]; rat plasma, i.v., 10 mg/kg",480 min
same,Cmax,"[3]; rat plasma, i.v., 10 mg/kg, measured five minutes after dosing, not actual peak",9.56^a μg/mL
same,AUC0→∞,"[3]; rat plasma, p.o., 10 mg/kg",2650 ng·h/mL
same,t1/2,"[3]; rat plasma, p.o., 10 mg/kg",414 min
same,Cmax,"[3]; rat plasma, p.o., single 10 mg/kg (free drug dose), eight timepoints",1.50 µg/mL
same,BA (absolute oral),"[3]; rats, 10 mg/kg p.o. vs i.v., plasma AUC0→∞",42%
same,Brain to plasma ratio,"[3]; rats, both i.v. and p.o., 10 mg/kg",0.97
same,time of peak concentration,"[3]; rats, plasma and brain, i.v., 10 mg/kg",0.083 h
same,"Backwards movement, mean score±SEM","mice [4]; 450 mg/kg p.o., 60 min",0
same,"Ptosis, mean score±SEM","mice [4]; 450 mg/kg p.o., 60 min",0
same,"Sniffing, mean score±SEM","mice [4]; 450 mg/kg p.o., 60 min",0
same,"Tail flicking, mean score±SEM","mice [4]; 450 mg/kg p.o., 60 min",0
same,"Piloerection, mean score±SEM","mice [4]; 450 mg/kg p.o., observed over 60 min, n=4/group",0.25±0.25
same,Overall adverse effects,mice [4]; up to a dose of 450 mg/kg p.o.,"minimal, if any, adverse effects"
same,Forced-swim test immobility time,mice [1]; [9],reduced immobility time
same,Forced-swim test immobility time,mice [1]; [10],reduced immobility time
same,Forced-swim test immobility time,"mice [1]; 15-150 mg/kg p.o., 24 h after treatment, p<0.01",reductions in immobility time
same,Forced-swim test immobility time,"mice [1]; 15-150 mg/kg p.o., one hour after treatment, p<0.05",reductions in immobility time
same,AUC0→∞,[5]; [11],9.53 µg·h/g
same,t1/2,[5]; [11],36 min
same,AUC0→∞,[5]; [12],6.96 µg·h/g
same,t1/2,[5]; [12],42 min
same,Cmax,"[5]; brain, female mice, p.o., single 50 mg/kg",11.6 µg/g
same,AUC0→∞,[5]; [13],4.94 µg·h/g
same,t1/2,[5]; [13],24 min
same,Cmax,"[5]; brain, male mice, i.p., single 50 mg/kg",12.7 µg/g
same,AUC0→∞,[5]; [14],8.38 µg·h/g
same,t1/2,[5]; [14],30 min
same,t1/2,"[5]; brain, male mice, p.o., 50 mg/kg",42 min
same,AUC0→∞,"[5]; brain, male mice, p.o., 50 mg/kg, range of two cohorts",2.85−5.19 μg/g×h
same,Cmax,"[5]; brain, male mice, p.o., single 50 mg/kg, range of two cohorts",6.49−8.60 μg/g
same,Absolute BA (plasma AUC0→∞ p.o. / i.v.),"[5]; female mice, 50 mg/kg",52%
same,maximal levels p.o. lower than i.v.,"[5]; female mice, 50 mg/kg, plasma",1.7 ×
same,Cl,"[5]; female mice, i.v.",51 mL/min/kg
same,Vss,"[5]; female mice, i.v.",0.80 L/kg
same,Brain to plasma ratio,"[5]; female mice, i.v., 50 mg/kg",0.67
same,AUC/dose,"[5]; female mice, i.v., plasma",0.330 µg·kg·h/mL/mg
same,Brain to plasma ratio,"[5]; female mice, p.o., 50 mg/kg",0.95
same,AUC/dose,"[5]; female mice, p.o., plasma",0.170 µg·kg·h/mL/mg
same,Absolute BA (plasma AUC0→∞ p.o. / i.v.),"[5]; male mice, 50 mg/kg",46%
same,maximal brain concentration p.o. as % of i.p.,"[5]; male mice, 50 mg/kg",51%
same,maximal plasma concentration p.o. as % of i.p.,"[5]; male mice, 50 mg/kg",44.1%
same,Relative BA (plasma AUC0→∞ p.o. / i.p.),"[5]; male mice, 50 mg/kg, five timepoints",62%
same,highest concentrations p.o. lower than i.p. and i.v.,"[5]; male mice, 50 mg/kg, plasma and brain",2–3 fold
same,brain concentration p.o. as % of i.v.,"[5]; male mice, 10 min after dosing, 50 mg/kg",42%
same,Brain to plasma ratio,"[5]; male mice, i.p., 50 mg/kg",0.96
same,Cl,"[5]; male mice, i.v.",74 mL/min/kg
same,Vss,"[5]; male mice, i.v.",1.7 L/kg
same,Brain to plasma ratio,"[5]; male mice, i.v., 50 mg/kg",0.86
same,AUC/dose,"[5]; male mice, i.v., plasma, normalized to free drug dose",0.226 µg·kg·h/mL/mg
same,maximal brain concentration,[5]; [15],6.49 µg/g
same,maximal plasma concentration,[5]; [15],5.90 µg/mL
same,Brain to plasma ratio,"[5]; male mice, p.o., 50 mg/kg, range of two cohorts",0.90−1.16
same,brain concentration at earliest timepoint,[5]; [16],8.60 µg/g
same,plasma concentration at earliest timepoint,[5]; [16],5640 ng/mL
same,Brain to plasma exposure ratio (brain penetrance),"[5]; male mice, p.o., cohort p.o. vs i.p.",0.90
same,Brain penetrance (brain to plasma ratio),"[5]; male mice, p.o., cohort p.o. vs i.v.",1.16
same,AUC/dose,"[5]; male mice, p.o., plasma, normalized to free drug dose",0.104 µg·kg·h/mL/mg
same,Brain to plasma ratio,"[5]; mice and rats, following oral administration (abstract)",0.67–1.2
same,Brain to plasma ratio,"[5]; mice, both sexes and all routes of administration",0.67–1.2
same,clearance,"[5]; mice, i.v., range of sexes",51 to 74 mL/min/kg
same,dose-normalized plasma exposure (AUC/dose),"[5]; mice, i.v., range of sexes",0.226 to 0.330 µg·kg·h/mL/mg
same,highest plasma concentrations in females higher than in males,"[5]; mice, p.o. and i.v., 50 mg/kg",1.5–2.6 ×
same,dose-normalized plasma exposure (AUC/dose),"[5]; mice, p.o., range of sexes",0.104 to 0.170 µg·kg·h/mL/mg
same,Tmax,"[5]; mice, plasma and brain, all routes (i.p., p.o., i.v.), 50 mg/kg",10 min
same,half-life (t1/2),"[5]; mice, plasma, range over routes and sexes",12 to 48 min
same,absolute oral BA,"[5]; mice, range of males and females",46–52%
same,AUC0→∞,[5]; [17],14.2 µg·h/mL
same,t1/2,[5]; [17],12 min
same,AUC0→∞,[5]; [18],7.33 µg·h/mL
same,t1/2,[5]; [18],18 min
same,Cmax,"[5]; plasma, female mice, p.o., single 50 mg/kg",14.7 µg/mL
same,t1/2,"[5]; plasma, male mice, i.p., 50 mg/kg",30 min
same,AUC0→∞,"[5]; plasma, male mice, i.p., single 50 mg/kg",5.12 µg·h/mL
same,Cmax,"[5]; plasma, male mice, i.p., single 50 mg/kg (43.1 mg/kg free base), five timepoints",13.4 µg/mL
same,t1/2,"[5]; plasma, male mice, i.v., 50 mg/kg",30 min
same,AUC0→∞,"[5]; plasma, male mice, i.v., single 50 mg/kg",9.76 µg·h/mL
same,t1/2,"[5]; plasma, male mice, p.o., 50 mg/kg",48 min
same,AUC0→∞,"[5]; plasma, male mice, p.o., single 50 mg/kg, range of two cohorts",3.18−4.49 μg/mL×h
same,AUC0→∞,"[6]; i.v., 10 mg/kg",7830 ng·h/mL
same,t1/2,"[6]; i.v., 10 mg/kg",96 min
same,Cmax,"[6]; i.v., 10 mg/kg, measured five minutes after dosing, not actual peak",8.87^a μg/mL
same,AUC0→∞,"[6]; p.o., 10 mg/kg",4540 ng·h/mL
same,t1/2,"[6]; p.o., 10 mg/kg",90 min
same,Cmax,"[6]; p.o., single 10 mg/kg (free drug dose)",3.44 µg/mL
same,BA (absolute oral),"[6]; dogs, 10 mg/kg p.o. vs i.v.",58%
same,time of peak plasma concentration,"[6]; dogs, i.v., 10 mg/kg, first collection time point",five minutes
same,Tmax,"[6]; dogs, plasma, p.o., 10 mg/kg",16.8 min
same,Cl,"[6]; male dogs, i.v.",21 mL/min/kg
same,Vss,"[6]; male dogs, i.v.",1.2 L/kg
same,AUC/dose,"[6]; male dogs, i.v., plasma",0.783 µg·kg·h/mL/mg
same,AUC/dose,"[6]; male dogs, p.o., plasma",0.454 µg·kg·h/mL/mg
same,Relative BA (plasma AUClast p.o. / i.p.),Screening of,47%
same,"Cmax of (2R,6R)-HNK in plasma",Screening of; i.p.,13400 ng/mL
same,"AUClast of (2R,6R)-HNK in plasma",Screening of; i.p.,5910 ng·h/mL
same,"Cmax of (2R,6R)-HNK in plasma",Screening of; p.o.,5900 ng/mL
same,"AUC (systemic exposure to (2R,6R)-HNK)",Screening of; p.o.,2.80 µg/mL/h
same,"AUClast of (2R,6R)-HNK in plasma",Screening of; p.o.,2800 ng·h/mL
same,Open-field total distance travelled,mice [7],did not alter the total distance travelled at any dose tested
same,Open-field total distance travelled,"mice [7]; listed as (2R,6R)-hydroxynorketamine",did not alter locomotor activity
same,Open-field time spent in the center (central 50%) of the arena,"mice [7]; 15-450 mg/kg p.o., 60 min",no significant effect; also recorded: did not alter
"N[C@]1(c2ccccc2Cl)CCC[C@H](O)C1=O [(2S,6S)-HNK, (2S,6S)-hydroxynorketamine]",oral BA,[8],approximately 46%
CC(=O)O[C@@H]1CCC[C@@](N)(c2ccccc2Cl)C1=O [Compound 2a],Relative BA (plasma AUClast p.o. / i.p.),Screening of,28%
same,"AUC (systemic exposure to (2R,6R)-HNK)",Screening of; p.o.,2.26 µg/mL/h
CCC(=O)O[C@@H]1CCC[C@@](N)(c2ccccc2Cl)C1=O [Compound 2b],Relative BA (plasma AUClast p.o. / i.p.),Screening of,30%
CCCCC(=O)O[C@@H]1CCC[C@@](N)(c2ccccc2Cl)C1=O [Compound 2c],Relative BA (plasma AUClast p.o. / i.p.),Screening of,26%
CCCCCCCC(=O)O[C@@H]1CCC[C@@](N)(c2ccccc2Cl)C1=O [Compound 2d],Relative BA (plasma AUClast p.o. / i.p.),Screening of,10%
same,"AUC (systemic exposure to (2R,6R)-HNK)",Screening of; p.o.,0.782 µg/mL/h
N[C@@]1(c2ccccc2Cl)CCC[C@@H](OC(=O)c2ccccc2)C1=O [Compound 2e],Relative BA (plasma AUClast p.o. / i.p.),Screening of,44%
